Data as given in the supplement of paper PMC10307832.

Tests used:
Experiment in all cases: relative viability (nuclei count vs DMSO), 5 days (fraction); higher = more cells survive
[1] = compound: COc1cc(Nc2ncc(F)c(Nc3ccc4c(n3)NC(=O)C(C)(C)O4)n2)cc(OC)c1OC [R406] + Cc1cc(Nc2cc(N3CCN(C)CC3)nc(Sc3ccc(NC(=O)C4CC4)cc3)n2)n[nH]1 [Tozasertib] (partner 0.1 µM)
Procedure, shortened: (§1)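 Lung cancer cell lines, seeded in 1536-well plates, were treated the following day by pin tool with a single drug or with five library-drug doses (not always all listed) in √10 steps on top of a fixed anchor-drug dose. Cells were fixed and nuclei stained in one step after 5 days, and nuclei were counted. Relative viability is the nuclei count for treated wells divided by that for vehicle wells, reported as medians of duplicate plates.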

[2] = compound: COc1cc(Nc2ncc(F)c(Nc3ccc4c(n3)NC(=O)C(C)(C)O4)n2)cc(OC)c1OC [R406] + CS(=O)(=O)N1CCN(Cc2cc3nc(-c4cccc5[nH]ncc45)nc(N4CCOCC4)c3s2)CC1 [Pictilisib] (partner 1 µM)
Procedure, shortened: as §1

[3] = compound: COc1cc(Nc2ncc(F)c(Nc3ccc4c(n3)NC(=O)C(C)(C)O4)n2)cc(OC)c1OC [R406] + C[C@]1(O)C[C@@H](c2nc(-c3ccc4ccc(-c5ccccc5)nc4c3)c3c(N)nccn32)C1 [Linsitinib] (partner 1 µM)
Procedure, shortened: as §1

[4] = compound: COc1cc(Nc2ncc(F)c(Nc3ccc4c(n3)NC(=O)C(C)(C)O4)n2)cc(OC)c1OC [R406] + COc1cccc2cc(-c3nc([C@H]4CC[C@H](C(=O)O)CC4)n4ncnc(N)c34)[nH]c12 [OSI-027] (partner 0.5 µM)
Procedure, shortened: as §1

| Cell Line | relative viability ([1]; first compound 0.08 µM) | relative viability ([1]; first compound 0.253 µM) | relative viability ([1]; first compound 0.8 µM) | relative viability ([1]; first compound 2.53 µM) | relative viability ([1]; first compound 8 µM) | relative viability ([2]; first compound 0.08 µM) | relative viability ([2]; first compound 0.253 µM) | relative viability ([2]; first compound 0.8 µM) | relative viability ([2]; first compound 2.53 µM) | relative viability ([2]; first compound 8 µM) | relative viability ([3]; first compound 0.08 µM) | relative viability ([3]; first compound 0.253 µM) | relative viability ([3]; first compound 0.8 µM) | relative viability ([3]; first compound 2.53 µM) | relative viability ([3]; first compound 8 µM) | relative viability ([4]; first compound 0.08 µM) | relative viability ([4]; first compound 0.253 µM) | relative viability ([4]; first compound 0.8 µM) | relative viability ([4]; first compound 2.53 µM) | relative viability ([4]; first compound 8 µM) |
| --- | --- | --- | --- | --- | --- | --- | --- | --- | --- | --- | --- | --- | --- | --- | --- | --- | --- | --- | --- | --- |
| NCI-H1437 | 0.403 | 0.433 | 0.409 | 0.417 | 0.416 | 0.368 | 0.535 | 0.367 | 0.236 | 0.231 | 1.01 | 1.26 | 1.24 | 0.904 | 0.49 | 0.91 | 0.86 | 1.11 | 0.835 | 0.593 |
| NCI-H1651 | 0.719 | 0.865 | 0.641 | 0.592 | 0.496 | 0.512 | 0.652 | 0.727 | 0.249 | 0.251 | 0.862 | 1.1 | 1.06 | 0.829 | 0.5 | 0.632 | 0.749 | 0.804 | 0.621 | 0.286 |
| NCI-H1666 | 0.584 | 0.725 | 0.582 | 0.633 | 0.418 | 0.431 | 0.555 | 0.515 | 0.323 | 0.359 | 0.837 | 0.792 | 0.872 | 0.735 | 0.449 | 0.829 | 0.851 | 0.88 | 0.829 | 0.642 |
| NCI-H1734 | 0.294 | 0.272 | 0.262 | 0.26 | 0.206 | 0.434 | 0.478 | 0.593 | 0.248 | 0.281 | 0.912 | 0.859 | 0.949 | 0.818 | 0.554 | 0.604 | 0.684 | 0.647 | 0.381 | 0.374 |
| NCI-H1755 | 0.463 | 0.529 | 0.605 | 0.504 | 0.331 | 0.469 | 0.415 | 0.496 | 0.221 | 0.195 | 0.924 | 1.02 | 1.02 | 0.779 | 0.688 | 0.667 | 0.78 | 0.692 | 0.331 | 0.376 |
| NCI-H1793 | 0.333 | 0.353 | 0.389 | 0.155 | 0.109 | 0.367 | 0.354 | 0.492 | 0.168 | 0.23 | 0.703 | 1.01 | 1.2 | 0.57 | 0.376 | 0.251 | 0.273 | 0.303 | 0.116 | 0.158 |
| NCI-H1915 | 0.459 | 0.474 | 0.521 | – | 0.463 | 0.942 | 1.03 | 0.972 | 0.364 | 0.74 | 1.09 | 1.12 | 1.09 | 1.09 | 0.98 | 0.619 | 0.708 | 0.581 | – | 0.4 |
| NCI-H1944 | 0.252 | 0.272 | 0.241 | 0.228 | 0.181 | 0.316 | 0.344 | 0.348 | 0.265 | 0.279 | 1.21 | 1.24 | 1.22 | 0.879 | 0.741 | 0.398 | 0.41 | 0.419 | 0.304 | 0.242 |
| NCI-H1975 | 0.75 | 0.918 | 0.785 | 0.189 | 0.109 | 0.29 | 0.297 | 0.319 | 0.162 | 0.142 | 0.875 | 1.06 | 0.981 | 0.467 | 0.186 | 0.699 | 0.678 | 0.854 | 0.252 | 0.15 |
| NCI-H1993 | 0.597 | 0.536 | 0.605 | 0.493 | 0.432 | 0.769 | 0.814 | 0.862 | 0.604 | 0.928 | 0.762 | 0.656 | 0.709 | 0.675 | 0.703 | 0.546 | 0.521 | 0.55 | 0.515 | 0.552 |
| NCI-H2009 | 0.816 | 0.848 | 0.716 | 0.627 | 0.311 | 0.793 | 0.76 | 0.892 | 0.289 | 0.192 | 1.09 | 1.3 | 1.19 | 1.18 | 1.07 | 0.602 | 0.729 | 0.747 | 0.301 | 0.149 |
| NCI-H2023 | 0.384 | 0.396 | 0.354 | 0.225 | 0.178 | 0.239 | 0.243 | 0.257 | 0.0848 | 0.12 | 0.633 | 0.714 | 0.62 | 0.253 | 0.55 | 0.413 | 0.464 | 0.488 | 0.134 | 0.0924 |
| NCI-H2085 | 0.83 | 0.892 | 0.872 | 0.632 | 0.379 | 0.413 | 0.505 | 0.459 | 0.482 | 0.37 | 0.899 | 1.08 | 0.825 | 0.971 | 0.707 | 0.863 | 0.968 | 0.861 | 0.259 | 0.345 |
| NCI-H2087 | 0.293 | 0.238 | 0.298 | – | 0.253 | 0.876 | 1.07 | 0.92 | 0.352 | 0.717 | 1.29 | 1.04 | 0.914 | 1.03 | 0.709 | 0.44 | 0.597 | 0.658 | – | 0.499 |
| NCI-H2126 | 0.829 | 0.962 | 0.848 | 0.806 | 0.545 | 0.508 | 0.502 | 0.49 | 0.437 | 0.493 | 0.683 | 0.783 | 0.753 | 0.657 | 0.625 | 0.624 | 0.78 | 0.661 | 0.606 | 0.641 |
| NCI-H2228 | 0.27 | 0.31 | 0.253 | 0.278 | 0.066 | 0.587 | 0.222 | 0.532 | 0.169 | 0.187 | 0.729 | 0.813 | 0.889 | 0.273 | 0.154 | 0.529 | 0.574 | 0.867 | 0.138 | 0.163 |
